Reference: publication PMC10313368 (The Journal of Clinical Investigation, 2023)
Where two headings read alike, the source gives them in different places.

Assay: Mouse pharmacokinetics in retina after intraocular injection (LC-MS/MS)
Format: in vivo
Conditions: for AUC % Extrapolated / AUClast / Cmax / half-life / Tmax: retina; for half-life / Tmax: C57BL/6, mouse, topical or ocular; for half-life: 280 ng
Procedure: intraocular injection. Mice (at least 3 mice per time point) were euthanized at 1, 3, 7, or 14 days after injection. For the 280-ng dose, a 10-day time point was added. […]
retina by LC-MS/MS as previously described (5) with the following modifications. Retina tissue samples were homogenized in 200 μL of 1× PBS (pH 7.4) before extraction. The standard curve and quality control samples were prepared in 1× PBS as a surrogate matrix. Retina tissue samples were then quantitated in µM as: nominal concentration (µM) × initial dilution ([tissue weight (mg) + volume of solvent (μl)]/ tissue weight (mg)). For all samples <10 nM, the value was reported as below the limits of detection. If at least on samples was >10 nM and one was <10 nM, then one half that value (5 nM) was imputed to calculate the concentration for that specimen and utilized in the average and standard deviation calculations.
Pharmacokinetic parameters were calculated from mean concentration-time data using noncompartmental methods in Phoenix WinNonlin version 8.3 (Certara, Princeton, NJ, USA). The Cmax and time to Cmax (Tmax) were the observed values. The AUClast was calculated using the log-linear trapezoidal method to the last quantifiable time point. The λz was determined from at least 3 points on the slope of the terminal phase of the concentration-time profile using a 1/y2 weighting factor. The T1/2 was determined by dividing 0.693 by λz. T1/2 was not reported if the correlation coefficient (r2) for λz was less than 0.9.
Bioanalytical method for mouse pharmacokinetics. Retina tissue samples were homogenized in 200 μL of 1× PBS (pH 7.4) before extraction. The standard curve and quality control samples were prepared in 1× PBS as a surrogate matrix for all matrices. Tissue homogenate or PBS (25 μL) was […]
respectively. Dwell time was 150 milliseconds. […]
constructed from the peak area ratio of the analyte to the peak area of its internal standard (EXP-3179) using the least-squares quadratic regression analysis with 1/x2 weight over the range of 10-2,110 nM with dilutions of up to 1:10 (v/v). […]

With `Brc1ccc2c(-c3csc(-c4c[nH]c5c(Br)cccc45)n3)c[nH]c2c1` [32-134D, 4-(6-bromo-1H-indol-3-yl)-2-(7-bromo-1H-indol-3-yl)thiazole] the “AUC % Extrapolated” value (70 ng eyeball) was 21.1%, the AUClast (70 ng eyeball) was 72.3 nmol·days/g and the Cmax (70 ng eyeball) was 19.1 nmol/g. For the same compound, the “AUC % Extrapolated” value (280 ng eyeball) was 2.2%, the AUClast (280 ng eyeball) was 147 nmol·days/g and the Cmax (280 ng eyeball) was 18 nmol/g. It also gave a half-life (280 ng eyeball, read-out: T1/2 (converted)) of 2530 min, a half-life (single 280 ng intraocular injection, read-out: t1/2 in retina (converted)) of 2590 min and a Tmax (70 ng eyeball) of 24 h. For the same compound, the Tmax (280 ng eyeball) was 24 h, the “Cmax in neurosensory retina” value (single 70 ng intraocular injection) was 19.1 nmol/g and the AUClast in retina (single 70 ng intraocular injection, over 14 days) was 72.3 nmol·days/g. The “Cmax in neurosensory retina” value (single 280 ng intraocular injection) was 18 nmol/g, the AUClast in retina (single 280 ng intraocular injection, through 14 days) was 147 nmol·days/g and the “IC50 as used for time above IC50” value (threshold in the pharmacokinetic calculation) was 3.51 nmol/g.
